Measured values reported in patent publication US4933368A, “N-phenylbenzamide derivatives” (Godecke Aktiengesellschaft, priority 1983, dated 1990).
Entries after “also recorded” stand apart in the source; their conditions may differ.

Key:
[1] = tested on: Osteosarcoma C22LR; assay: Osteosarcoma C22LR, growth retardation in mice; format: in vivo, BCBA mice; settings: for Surviving Animals: n = 5
Method: Preparation: As suspension freshly prepared
before each administration
Route of Oral, suspended in 0.8%
administration: Methocel
Volume: 0.01 per gram body weight
daily for 9 days, if not
Osteosarcoma. C22LR in BCBA mice (C57B1×CBA/Rij, Fl hybrid). The tumor is subcutaneously inoculated bilaterally into the sides. It is measured at least 2×weekly in three dimensions. The terminal point is the retardation of growth. It is defined as the difference of the average time in which the volume of five to ten tumors in five treated animals reaches a given value in comparison with that of five to ten tumors in the control animals. This value was determined as four times that of the average volume at commencement of treatment.

[2] = tested on: growing hair follicle; assay: Antiproliferative activity upon topical administering to rats (hair growth); format: in vivo, Long Evans rats; settings: 0.5% solution in absolute ethanol, 5-10 mg/animal daily
Method: No control standard known
Preparation: Fresh before each
Route of Topically by pipetting as
administration: 0.5% solution in absolute
Volume: 1 ml per animal and dose
Tested dose: 5 mg/animal daily for 14 days
10 mg/animal daily for 7 days
A protective collar is placed on male rats of the Long Evans strain, fur color "black-hooded." A rectangle measuring 3 cm long and 1.5 cm wide is marked with the aid of a template on the dorsal skin in the region of the black dorsal hair strip subsequent to shaving and cleansing. The test solution is slowly applied dropwise to this rectangle, so as to avoid it running off onto the surrounding skin. The solvent is applied in the same manner to the control animals. After 21 days of treatment the hair growth is assessed on the treated areas compared with the control areas.

[3] = tested on: Electro-convulsion; assay: Maximal electroconvulsion test; format: in vivo; settings: Mus musculus, po; i.g., mice
[4] = tested on: Pentetrazole-convulsion; assay: Pentetrazole-convulsion model; format: in vivo; settings: Mus musculus, po; i.g., mice
[5] = tested on: Mammary adenocarcinoma 25; assay: Mammary adenocarcinoma 25 (CCTM test); format: in vivo, mice
Method: (§2) The CCTM assay assesses the antitumor activity of a test agent by measurement of the treatment-induced delay of tumor growth. Tumor growth delay is used because, unlike T/C type assays, the measured parameter is independent of time.
(§3) Test animals are Fl hybrid mice derived from the inbred strain of tumor origin. After the required mice are randomized, they receive SC implants of either trocar fragments (30-50 mg) or appropriate dilutions of tumor brei on Day 0. Samples for each donor tumor or from the final brei are incubated in thioglycolate media as a check for gross contamination of the tumor material. After tumor inoculation, the test mice are rerandomized and distributed to test group as per the specific test protocol.
Survival is checked daily for each test group. Both the number dead and the number living are counted and recorded. All dead mice are autopsied to ascertain the probable cause of death (drug or tumor). Clinical signs are observed and recorded for all test groups. Individual body weights are recorded at least weekly as directed in the specific test protocol. Each tumor is measured with calipers as per the protocol (usually two to three times/week).
Any surviving animal with a tumor that is larger than the smallest lethal control tumor for two successive measurements will be sacrificed unless:
This time may be calculated as:
Td=tumor volume doubling time (days), calculated from the slope of a long-linear least squares fit of the growth curve between 63 and 1000 mg for each control tumor. The mean value for the control group is used for all other calculations that require Td.
T,C=median time in days for the tumor in a given group to reach a predetermined evaluation size (usually 750 mg). T=treated groups/C=control group. These values are calculated by log/linear interpolation between the nearest tumor measurements on either side of the evaluation size.
T-C=tumor growth delay in days (treatment minus control).
Gross Log Kill=total number of logs of tumor cell kill produced by the given treatment regimen.
Gross Kill=(T-C)/3.32*Td)
Net Log Kill=the difference in logs between the tumor burden after the last treatment and the initial pretreatment burden. Net kill reflects the effectiveness of the overall therapy accounting for the growth of the tumor between individual treatments of the therapeutic regimen. Net kill allows valid comparisons of different treatment regimens, i.e., those with different durations of treatment that allow different amounts of tumor growth during therapy.
Net Kill=[(T-C)-DRx]/(3.32*Td)
(§4) All tumor-free survivors (cures) are excluded from the calculation of T-C and cell kill values. Thus, all calculated end points represent the response of the treatment failures.

[6] = tested on: Mammary adenocarcinoma 16; assay: Mammary adenocarcinoma 16 (CCTM test); format: in vivo, mice; settings: SC PO, Days 1-16, 56 mg/kg
Method: as §2, §3
Survival is checked daily for each test group. Both the number dead and the number living are counted and recorded. All dead mice are autopsied to ascertain the probable cause of death (drug or tumor). Clinical signs are observed and recorded for all test groups. Individual body weights are recorded at least weekly as directed in the specific test protocol. Each tumor is measured with calipers as per the protocol (usually two to three times/week). […]
This time may be calculated as:
T,C=median time in days for the tumor in a given group to reach a predetermined evaluation size (usually 750 mg). […] These values are calculated by log/linear interpolation between the nearest tumor measurements on either side of the evaluation size. […]
as §4

[7] = tested on: MNU-induced rat mammary tumor; assay: MNU-induced mammary tumor (CCTR); format: in vivo; settings: for % T/C / Rating: PO, 4 times daily, Days 1-5 for 5 weeks
Source text: (§1) Doses just under the acutely lethal dose can be given indefinitely (for more than 30 days), during which the treated animals regain their initial weight loss.

[8] = tested on: HCT-8 human colon xenograft; assay: HCT-8 human colon xenograft in nude mice (CCTM test); format: in vivo
Source text: as §1
The two types of assays used were the standard CCTM test for solid tumors and the CCLS test for leukemia.
The CCTM assay assesses the antitumor activity of a test agent by measurement of the treatment-induced delay of tumor growth. Tumor growth delay is used because, unlike T/C type assays, the measured parameter is […].
Test animals are Fl hybrid mice derived from the inbred strain of tumor origin. […]
Test agents are dissolved or suspended in any of several vehicles and are administered by the routes and treatment schedules specified on the test protocol. All animals are monitored for signs of acute toxicity and side effects.
Survival is checked daily for each test group. Both the number dead and the number living are counted and recorded. […] Clinical signs are observed and recorded for all test groups. Individual body weights are recorded at least weekly as directed in the specific test protocol. Each tumor is measured with calipers as per the protocol (usually two to three times/week). […]
Td=tumor volume doubling time (days), calculated from the slope of a long-linear least squares fit of the growth curve between 63 and 1000 mg for each control tumor. […]

[9] = tested on: peripheral leukocytes and lymphocytes; assay: Influence on peripheral leukocytes and lymphocytes in rhesus monkeys; format: in vivo; settings: 1× daily 10 mg/kg i.g.
Method: Dosage: 1×daily 10 mg/kg i.g.
FIG. 1: Rhesus monkey ZE, .female.
FIG. 2: Rhesus monkey YL, .female.

## Nc1ccc(C(=O)Nc2ccccc2N)cc1 [Substance A, 4-Amino-N-(2'-aminophenyl)-benzamide]
[1]; 1 × 240 mg/kg PO
  Surviving Animals: 5/5
[1]; 1 × 240 mg/kg PO, p = 0,001
  Retardation in Growth of Tumor (Days): 3,1 Days
[1]; 2 × 180 mg/kg PO
  Retardation in Growth of Tumor (Days): 9,6 Days
  Surviving Animals: 1/5
[1]; 4 × 120 mg/kg PO
  Retardation in Growth of Tumor (toxic death): toxic death
[1]; 9 × 60 mg/kg IP, controls 5/5
  Surviving Animals: 5/5
[1]; 9 × 60 mg/kg IP, p = 0,0001
  Retardation in Growth of Tumor (Days): 7,8 Days
[1]; mouse, in vivo
  assessment of activity: good activity
[2]
  inhibition of hair growth / topical antiproliferative action: clear inhibition of hair growth; also recorded: distinct antiproliferate action
[3]
  ED50: 30 mg/kg
[4]
  ED50: 44 mg/kg
[5]; SC PO, Days 3-24, 50 mg/kg
  % T/C: 0%
[5]; SC PO, Days 3-24, 50 mg/kg, 6 out of 10 cures
  cures: 6/10
[5]; SC PO, Days 25-36, 50 mg/kg
  (T-C) tumor growth delay: 16 days
  Cell Kill Net: 1.6 logs
[5]; mammary 25
  anticancer activity: significant anticancer activity has been demonstrated and confirmed
[6]
  (T-C) tumor growth delay: 11 days
  Cell Kill Gross: 3.0 log10
  Cell Kill Net: -1.2 logs
[7]; MNU-induced rat mammary tumor
  anticancer activity: significant anticancer activity has been demonstrated and confirmed
[7]; 7.5 mg/kg
  % T/C: 3.5%
  Rating: AA (≤10% T/C High Activity)
[7]; 10 mg/kg
  % T/C: 7.8%
  Rating: AA (≤10% T/C High Activity)
[8]; HCT-8 human colon tumor xenograft
  anticancer activity: significant anticancer activity has been demonstrated and confirmed
[8]; SC PO, Days 9-24, 69 mg/kg
  (T-C) tumor growth delay: 13 days
[9]
  reduction of the peripheral lymphocytes: simultaneous distinct reduction of the peripheral lymphocytes
